The values that follow come from ChEMBL document CHEMBL1130573, “Anti-AIDS agents-XXVIII.1 Synthesis and Anti-HIV activity of methoxy substituted 3,4-Di-O-()-camphanoyl-(+)-cis-khellactone (DCK) analogues” (Bioorg Med Chem Lett, 1997).

The nature of data set [1]: Therapeutic index is the ratio of IC50 of compound to that of EC50. The conditions noted are these: read-out: Therapeutic index.
For data set [2], the system named is H9. The data set can be described thus: Anti-HIV activity was evaluated for the concentration that inhibits viral replication by 50%. It counts as functional, cell-based. The note with it: Homo sapiens.
Data set [3] concerns H9. The data set can be described thus: Inhibitory activity against gorwth of uninfected H9 cell growth by 50%. The format is functional, cell-based. The note with it: Homo sapiens.

For the compound `CC1(C)Oc2ccc3ccc(=O)oc3c2[C@@H](OC(=O)C23CCC(C)(C(=O)O2)C3(C)C)[C@H]1OC(=O)C12CCC(C)(C(=O)O1)C2(C)C` (stereo partly specified), the selectivity ratio in data set [1] worked out at 137000. Moreover, the concentration for a half-maximal effect (EC50) (usually the midpoint of the concentration-response curve) in the data set on H9 [2] was 0.000256 µM. Also, in the data set with H9 [3], the concentration for half-maximal inhibition (IC50) (in general, the point on the concentration scale where inhibition reaches its midpoint) came to 35 µM.

Take `COc1cc2c(c3oc(=O)ccc13)[C@@H](OC(=O)C13CCC(C)(C(=O)O1)C3(C)C)[C@@H](OC(=O)C13CCC(C)(C(=O)O1)C3(C)C)C(C)(C)O2` (stereo partly specified): the selectivity ratio in data set [1] is > 403000. Also, a half-maximal response in the data set on H9 [2] (EC50) required 0.000138 µM. Besides, the 50% inhibitory concentration (IC50) in the data set on H9 [3] was > 153 µM.

With `COc1cc(=O)oc2c3c(ccc12)OC(C)(C)[C@H](OC(=O)C12CCC(C)(C(=O)O1)C2(C)C)[C@@H]3OC(=O)C12CCC(C)(C(=O)O1)C2(C)C` (stereo partly specified), the selectivity ratio in data set [1] was > 51000. This compound also gave an EC50 in the data set on H9 [2] of 0.00276 µM. Besides, the IC50 with H9 [3] was > 153 µM.

As for `COc1cc2ccc(=O)oc2c2c1OC(C)(C)[C@H](OC(=O)C13CCC(C)(C(=O)O1)C3(C)C)[C@@H]2OC(=O)C12CCC(C)(C(=O)O1)C2(C)C` (stereo partly specified), the selectivity ratio in data set [1] is > 9.68. In the data set on H9 [2], this compound showed an EC50 of 24.5 µM. Further, the half-inhibitory concentration (IC50) in the data set on H9 [3] is > 153 µM.

With `COc1cc2ccc3c(c2oc1=O)[C@@H](OC(=O)C12CCC(C)(C(=O)O1)C2(C)C)[C@@H](OC(=O)C12CCC(C)(C(=O)O1)C2(C)C)C(C)(C)O3` (stereo partly specified), the selectivity ratio in data set [1] was > 25500. Besides, the EC50 with H9 [2] stood at 0.006 µM. Also, in the data set on H9 [3], the IC50 is > 153 µM.

As for `Cc1cn([C@H]2C[C@H](N=[N+]=[N-])[C@@H](CO)O2)c(=O)[nH]c1=O` [ZIDOVUDINE], the EC50 in the data set with H9 [2] was determined as 0.045 µM.
